In patent US9708325B2, “Sulfonimidoylpurinone compounds and derivatives for the treatment and prophylaxis of virus infection” (Hoffmann-La Roche Inc., priority 2015, dated 2017):
In brackets after ≈: the same amount, converted by molar mass. Read-outs that look alike come from different tables or passages of the source.

Tests used:
human TLR7 = human TLR7 (Homo sapiens (Human), UniProt Q9NYK1); assay: HEK-Blue-hTLR7 cells assay (SEAP reporter); format: cell-based; conditions: 20 hrs
Protocol: A stable HEK-Blue-hTLR7 cell line was purchased from InvivoGen (Cat.#: hkb-htlr7, San Diego, Calif., USA). These cells were designed for studying the stimulation of human TLR7 by monitoring the activation of NF-κB. […] Therefore the reporter expression was regulated by the NF-κB promoter upon stimulation of human TLR7 for 20 hrs. The cell culture supernatant SEAP reporter activity was determined using QUANTI-Blue™ kit (Cat.#: rep-qb1, Invivogen, San Diego, Ca, USA) at a wavelength of 640 nm, a detection medium that turns purple or blue in the presence of alkaline phosphatase.
HEK-Blue-hTLR7 cells were incubated at a density of 250,000˜450,000 cells/mL in a volume of 180 μL in a 96-well plate in Dulbecco's Modified Eagle's medium (DMEM) containing 4.5 g/L glucose, 50 U/mL penicillin, […], […], 2 mM L-glutamine, 10% (V/V) heat-inactivated fetal bovine serum for 24 hrs. Then the HEK-Blue-hTLR-7 cells were incubated with addition of 20 μL test compound in a serial dilution in the presence of final DMSO at 1% and perform incubation under 37° C. in a CO2 incubator for 20 hrs. Then 20 μL of the supernatant from each well was incubated with 180 μL Quanti-blue substrate solution at 37° C. for 2 hrs and the absorbance was read at 620˜655 nm using a spectrophotometer. The signalling pathway that TLR7 activation leads to downstream NF-κB activation has been widely accepted, and therefore similar reporter assay was also widely used for evaluating TLR7 agonist (Tsuneyasu Kaisho and Takashi Tanaka, Trends in Immunology, Volume 29, Issue 7, July 2008, […]; Hiroaki Hemmi et al, Nature Immunology 3, 196-200 (2002)).

LYSA solubility = format: physicochemical; conditions: 0.05 M phosphate buffer, pH 6.5, aqueous buffer, thermodynamic from solid
Protocol: LYSA solubility assay is used to determine the aqueous solubility of a compound. Samples were prepared in duplicate from 10 mM DMSO stock solution. […] After one night, the solutions were filtered using a microtiter filter plate. Then the filtrate and its 1/10 dilution were analyzed by HPLC-UV.

[1] = read-out: HEK-Blue-hTLR7 (EC50 (μM))

human TLR7, sequence (Q9NYK1 27-1049): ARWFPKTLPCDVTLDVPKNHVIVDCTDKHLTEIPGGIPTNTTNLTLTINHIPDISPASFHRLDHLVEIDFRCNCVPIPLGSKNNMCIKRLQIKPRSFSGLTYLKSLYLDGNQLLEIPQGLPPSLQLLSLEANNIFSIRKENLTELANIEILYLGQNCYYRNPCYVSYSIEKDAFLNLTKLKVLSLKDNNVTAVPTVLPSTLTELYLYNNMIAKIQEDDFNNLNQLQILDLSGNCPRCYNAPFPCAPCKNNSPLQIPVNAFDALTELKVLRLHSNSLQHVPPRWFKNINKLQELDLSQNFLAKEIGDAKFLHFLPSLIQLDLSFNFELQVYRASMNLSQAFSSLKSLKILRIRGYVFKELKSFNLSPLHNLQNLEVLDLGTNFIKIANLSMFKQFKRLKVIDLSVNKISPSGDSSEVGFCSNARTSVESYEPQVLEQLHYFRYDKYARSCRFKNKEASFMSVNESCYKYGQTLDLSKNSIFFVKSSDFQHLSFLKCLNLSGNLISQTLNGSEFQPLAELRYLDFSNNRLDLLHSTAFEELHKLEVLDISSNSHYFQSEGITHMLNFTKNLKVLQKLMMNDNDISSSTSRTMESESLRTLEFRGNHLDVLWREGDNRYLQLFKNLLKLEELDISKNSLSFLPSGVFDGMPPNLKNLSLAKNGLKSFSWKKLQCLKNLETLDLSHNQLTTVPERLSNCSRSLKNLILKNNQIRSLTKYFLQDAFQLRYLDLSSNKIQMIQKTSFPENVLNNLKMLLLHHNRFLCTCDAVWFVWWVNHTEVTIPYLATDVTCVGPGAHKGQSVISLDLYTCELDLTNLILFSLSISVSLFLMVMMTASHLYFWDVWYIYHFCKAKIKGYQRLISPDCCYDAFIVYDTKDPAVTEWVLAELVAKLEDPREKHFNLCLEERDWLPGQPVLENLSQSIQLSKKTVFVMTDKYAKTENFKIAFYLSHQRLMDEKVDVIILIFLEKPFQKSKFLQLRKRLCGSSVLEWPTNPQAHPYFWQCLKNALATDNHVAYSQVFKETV

EC50 (human TLR7; [1]) [µM]	solubility thermodynamic (LYSA solubility) [µg/mL]	SMILES	EC50 (human TLR7; HEK-Blue-hTLR7 (EC50 (μM))) [µM]
0.0096		CCCS(=N)(=O)c1nc(N)c2[nH]c(=O)n(Cc3ccc(Br)cc3)c2n1 (centres unmarked) [Example 25, 6-Amino-9-[(4-bromophenyl)methyl]-2-(propylsulfonimidoyl)-7H-purin-8-one]	
0.042		CCCS(=N)(=O)c1nc(N)c2[nH]c(=O)n(Cc3cccc(Cl)c3)c2n1 (centres unmarked) [Example 22, 6-Amino-9-[(3-chlorophenyl)methyl]-2-(propylsulfonimidoyl)-7H-purin-8-one]	
0.066	18 (≈ 43.8 µM)	COc1ccc(Cn2c(=O)[nH]c3c(N)nc(S(=N)(=O)CCCCl)nc32)cc1 (centres unmarked) [Example 11, 6-Amino-2-(3-chloropropylsulfonimidoyl)-9-[(4-methoxyphenyl)methyl]-7H-purin-8-one]	
		CS(=N)(=O)c1nc(N)c2[nH]c(=O)n(Cc3cccnc3)c2n1 (single isomer, unassigned) [Example 16-A, 6-Amino-2-(methylsulfonimidoyl)-9-(3-pyridylmethyl)-7H-purin-8-one]	0.76
0.43	89 (≈ 236 µM)	COCCCS(=N)(=O)c1nc(N)c2[nH]c(=O)n(Cc3ccccc3)c2n1 (centres unmarked) [Example 6, 6-Amino-9-benzyl-2-(3-methoxypropylsulfonimidoyl)-7H-purin-8-one]	
		CCCS(=N)(=O)c1nc(N)c2[nH]c(=O)n(Cc3ccc(Cl)cc3)c2n1 (single isomer, unassigned) [Example 9-B, 6-Amino-9-[(4-chlorophenyl)methyl]-2-(propylsulfonimidoyl)-7H-purin-8-one]	0.011
0.018		CCCS(=N)(=O)c1nc(N)c2[nH]c(=O)n(Cc3ccc(Cl)c(F)c3)c2n1 (centres unmarked) [Example 30, 6-Amino-9-[(4-chloro-3-fluorophenyl)methyl]-2-(propylsulfonimidoyl)-7H-purin-8-one]	
0.075		CCCS(=N)(=O)c1nc(N)c2[nH]c(=O)n(Cc3ccc(C(=O)OC)cc3)c2n1 (centres unmarked) [Example 38, Methyl 4-[[6-amino-8-oxo-2-(propylsulfonimidoyl)-7H-purin-9-yl]methyl]benzoate]	
0.18	18 (≈ 46.6 µM)	N=S(=O)(CC(F)(F)F)c1nc(N)c2[nH]c(=O)n(Cc3ccccc3)c2n1 (centres unmarked) [Example 7, 6-Amino-9-benzyl-2-(2,2,2-trifluoroethylsulfonimidoyl)-7H-purin-8-one]	
0.19		CCCS(=N)(=O)c1nc(N)c2[nH]c(=O)n(Cc3ccccc3Cl)c2n1 (centres unmarked) [Example 15, 6-Amino-9-[(2-chlorophenyl)methyl]-2-(propylsulfonimidoyl)-7H-purin-8-one]	
0.016		CCCS(=N)(=O)c1nc(N)c2[nH]c(=O)n(Cc3ccc(C(F)(F)F)cc3)c2n1 (centres unmarked) [Example 23, 6-Amino-2-(propylsulfonimidoyl)-9-[[4-(trifluoromethyl)phenyl]methyl]-7H-purin-8-one]	
0.022		CCCS(=N)(=O)c1nc(N)c2[nH]c(=O)n(Cc3ccc(C)c(Cl)c3)c2n1 (centres unmarked) [Example 36, 6-Amino-9-[(3-chloro-4-methyl-phenyl)methyl]-2-(propylsulfonimidoyl)-7H-purin-8-one]	
		CCCS(=N)(=O)c1nc(N)c2[nH]c(=O)n(Cc3ccc(Cl)cc3)c2n1 (single isomer, unassigned) [Example 9-A, 6-Amino-9-[(4-chlorophenyl)methyl]-2-(propylsulfonimidoyl)-7H-purin-8-one]	0.014
0.084		CCCS(=N)(=O)c1nc(N)c2[nH]c(=O)n(Cc3ccc(C(=O)N4CCCCC4)cc3)c2n1 (centres unmarked) [Example 41, 6-Amino-9-[[4-(piperidine-1-carbonyl)phenyl]methyl]-2-(propylsulfonimidoyl)-7H-purin-8-one]	
	121 (≈ 387 µM)	CCCS(=N)(=O)c1nc(N)c2[nH]c(=O)n(CC(C)C)c2n1 (centres unmarked) [Example 21, 6-Amino-9-isobutyl-2-(propylsulfonimidoyl)-7H-purin-8-one]	
		CCCS(=N)(=O)c1nc(N)c2[nH]c(=O)n(Cc3cccc(C#N)c3)c2n1 (centres unmarked) [Example 17, 3-[[6-Amino-8-oxo-2-(propylsulfonimidoyl)-7H-purin-9-yl]methyl]benzonitrile]	0.068
		COCCS(=N)(=O)c1nc(N)c2[nH]c(=O)n(Cc3ccccc3)c2n1 (single isomer, unassigned) [Example 3-B, 6-Amino-9-benzyl-2-(2-methoxyethylsulfonimidoyl)-7H-purin-8-one]	0.55
0.021		CCCS(=N)(=O)c1nc(N)c2[nH]c(=O)n(Cc3ccc(Cl)c(Cl)c3)c2n1 (centres unmarked) [Example 26, 6-Amino-9-[(3,4-dichlorophenyl)methyl]-2-(propylsulfonimidoyl)-7H-purin-8-one]	
		CS(=N)(=O)c1nc(N)c2[nH]c(=O)n(Cc3cccnc3)c2n1 (single isomer, unassigned) [Example 16-B, 6-Amino-2-(methylsulfonimidoyl)-9-(3-pyridylmethyl)-7H-purin-8-one]	0.15
0.074		COc1ccc(Cn2c(=O)[nH]c3c(N)nc(S(C)(=N)=O)nc32)cc1 (centres unmarked) [Example 10, 6-Amino-9-[(4-methoxyphenyl)methyl]-2-(methylsulfonimidoyl)-7H-purin-8-one]	
0.67	> 428	CS(=N)(=O)c1nc(N)c2[nH]c(=O)n(Cc3ccccn3)c2n1 (centres unmarked) [Example 19, 6-Amino-2-(methylsulfonimidoyl)-9-(2-pyridylmethyl)-7H-purin-8-one]	
0.09		CCCS(=N)(=O)c1nc(N)c2[nH]c(=O)n(Cc3ccc(C(=O)N4CCCC4)cc3)c2n1 (centres unmarked) [Example 42, 6-Amino-2-(propylsulfonimidoyl)-9-[[4-(pyrrolidine-1-carbonyl)phenyl]methyl]-7H-purin-8-one]	
0.021		CCCS(=N)(=O)c1nc(N)c2[nH]c(=O)n(Cc3ccc(Cl)c(C)c3)c2n1 (centres unmarked) [Example 28, 6-Amino-9-[(4-chloro-3-methyl-phenyl)methyl]-2-(propylsulfonimidoyl)-7H-purin-8-one]	

SMILES	EC50 (human TLR7; [1]) [µM]	solubility thermodynamic (LYSA solubility) [µg/mL]	EC50 (human TLR7; HEK-Blue-hTLR7 (EC50 (μM))) [µM]
CCCS(=N)(=O)c1nc(N)c2[nH]c(=O)n(Cc3ccc(C)cc3)c2n1 (centres unmarked) [Example 29, 6-Amino-2-(propylsulfonimidoyl)-9-(p-tolylmethyl)-7H-purin-8-one]	0.027		
CCCS(=N)(=O)c1nc(N)c2[nH]c(=O)n(Cc3cccc(C(N)=O)c3)c2n1 (centres unmarked) [Example 18, 3-[[6-amino-8-oxo-2-(propylsulfonimidoyl)-7H-purin-9-yl]methyl]benzamide]	0.047	166 (≈ 426 µM)	
CCS(=N)(=O)c1nc(N)c2[nH]c(=O)n(Cc3ccc(C)cc3)c2n1 (centres unmarked) [Example 71, 6-Amino-2-(ethylsulfonimidoyl)-9-(p-tolylmethyl)-7H-purin-8-one]	0.098	12 (≈ 34.6 µM)	
